Assay results reported in ChEMBL document CHEMBL3885861, “Open TG-GATES”.

Species: Rattus norvegicus
Assay: Open TG-GATES - Regimen: Single
Type: toxicity, organism-based, Sprague-Dawley
Parameters: regimen Single, gender Male, age 6 weeks
Conditions: in vivo, po, 0 mg/kg, route gavage, dose level Control; for APTT / Bas / Eos / Fbg / Hb / Ht / Lym / MCH / MCHC / MCV / Mono / Neu / PT / Plat / RBC / Ret / WBC: tissue Blood; for KIDNEY_L / KIDNEY_R / KIDNEY_TOTAL: tissue Kidney; for LIVER: tissue Liver; for A/G / ALP / ALT / AST / BUN / CRE / Ca / Cl / DBIL / GLC / IP / K / LDH / Na / PL / RALB / TBIL / TC / TG / TP / gamma-GTP: tissue Plasma

Question: What does the source list for `S=C=Nc1cccc2ccccc12` [1-NAPHTHYLISOTHIOCYANATE]?
Answer: TERMINAL_BW (3 h): 224.9 g; APTT (3 h): 18.6 s; Bas (3 h): 0%; Eos (3 h): 1%; Fbg (3 h): 223 mg/dL; Hb (3 h): 13.7 g/dL; Ht (3 h): 37.8%; Lym (3 h): 78%; MCH (3 h): 22.1 pg; MCHC (3 h): 36.2%; MCV (3 h): 61 fL; Mono (3 h): 2.6%; Neu (3 h): 17.6%; PT (3 h): 11.9 s; Plat (3 h): 124.1 x10_4/uL; RBC (3 h): 619.8 x10_4/ul; Ret (3 h): 8.2%; WBC (3 h): 101.9 x10_2/uL; KIDNEY_L (3 h): 1 g; KIDNEY_R (3 h): 1 g; KIDNEY_TOTAL (3 h): 2 g; LIVER (3 h): 10.2 g; A/G (3 h): 1.6; ALP (3 h): 937 IU/L; ALT (3 h): 37.6 IU/L; AST (3 h): 73 IU/L; BUN (3 h): 11.2 mg/dL; CRE (3 h): 0.4 mg/dL; Ca (3 h): 10.9 mg/dL; Cl (3 h): 103.4 meq/L; DBIL (3 h): 0.07 mg/dL; GLC (3 h): 200.8 mg/dL; IP (3 h): 9.4 mg/dL; K (3 h): 3.9 meq/L; LDH (3 h): 189.2 IU/L; Na (3 h): 141.6 meq/L; PL (3 h): 161.6 mg/dL; RALB (3 h): 3.4 g/dL; TBIL (3 h): 0.1 mg/dL; TC (3 h): 81 mg/dL; TG (3 h): 82.2 mg/dL; TP (3 h): 5.5 g/dL; gamma-GTP (3 h): 1 IU/L; TERMINAL_BW (6 h): 218.1 g; APTT (6 h): 18.7 s; Bas (6 h): 0.2%; Eos (6 h): 0.8%; Fbg (6 h): 232.2 mg/dL; Hb (6 h): 13.4 g/dL; Ht (6 h): 37.2%; Lym (6 h): 76%; MCH (6 h): 22 pg; MCHC (6 h): 36%; MCV (6 h): 61.2 fL; Mono (6 h): 3.4%; Neu (6 h): 18.4%; PT (6 h): 11.8 s; Plat (6 h): 128 x10_4/uL; RBC (6 h): 609.2 x10_4/ul; Ret (6 h): 7.2%; WBC (6 h): 106.9 x10_2/uL; KIDNEY_L (6 h): 1 g; KIDNEY_R (6 h): 1 g; KIDNEY_TOTAL (6 h): 2 g; LIVER (6 h): 9.6 g; A/G (6 h): 1.8; ALP (6 h): 1087 IU/L; ALT (6 h): 35.6 IU/L; AST (6 h): 71.8 IU/L; BUN (6 h): 10 mg/dL; CRE (6 h): 0.4 mg/dL; Ca (6 h): 10.6 mg/dL; Cl (6 h): 103.8 meq/L; DBIL (6 h): 0.07 mg/dL; GLC (6 h): 192 mg/dL; IP (6 h): 10 mg/dL; K (6 h): 3.8 meq/L; LDH (6 h): 167.6 IU/L; Na (6 h): 141.8 meq/L; PL (6 h): 142.8 mg/dL; RALB (6 h): 3.5 g/dL; TBIL (6 h): 0.1 mg/dL; TC (6 h): 76.2 mg/dL; TG (6 h): 63.8 mg/dL; TP (6 h): 5.4 g/dL; gamma-GTP (6 h): 1 IU/L; TERMINAL_BW (9 h): 216.9 g; APTT (9 h): 17.6 s; Bas (9 h): 0.2%; Eos (9 h): 0.8%; Fbg (9 h): 234.6 mg/dL; Hb (9 h): 13.3 g/dL; Ht (9 h): 36.8%; Lym (9 h): 75%; MCH (9 h): 21.7 pg; MCHC (9 h): 36.1%; MCV (9 h): 60.1 fL; Mono (9 h): 2.2%; Neu (9 h): 20.8%; PT (9 h): 12.2 s; Plat (9 h): 121.1 x10_4/uL; RBC (9 h): 612 x10_4/ul; Ret (9 h): 6.9%; WBC (9 h): 90.1 x10_2/uL; KIDNEY_L (9 h): 0.9 g; KIDNEY_R (9 h): 1 g; KIDNEY_TOTAL (9 h): 1.9 g; LIVER (9 h): 8.8 g; A/G (9 h): 1.8; ALP (9 h): 908.4 IU/L; ALT (9 h): 28.8 IU/L; AST (9 h): 57.4 IU/L; BUN (9 h): 10.8 mg/dL; CRE (9 h): 0.4 mg/dL; Ca (9 h): 10.7 mg/dL; Cl (9 h): 103.6 meq/L; DBIL (9 h): 0.07 mg/dL; GLC (9 h): 201.4 mg/dL; IP (9 h): 10.3 mg/dL; K (9 h): 4 meq/L; LDH (9 h): 145.6 IU/L; Na (9 h): 141.8 meq/L; PL (9 h): 139 mg/dL; RALB (9 h): 3.5 g/dL; TBIL (9 h): 0.1 mg/dL; TC (9 h): 74.4 mg/dL; TG (9 h): 50.8 mg/dL; TP (9 h): 5.5 g/dL; gamma-GTP (9 h): 1 IU/L; TERMINAL_BW (24 h): 234.7 g; APTT (24 h): 17.8 s; Bas (24 h): 0.4%; Eos (24 h): 0.8%; Fbg (24 h): 222.8 mg/dL; Hb (24 h): 13.4 g/dL; Ht (24 h): 37.5%; Lym (24 h): 81.6%; MCH (24 h): 22.2 pg; MCHC (24 h): 35.6%; MCV (24 h): 62.5 fL; Mono (24 h): 3%; Neu (24 h): 13.6%; PT (24 h): 11.7 s; Plat (24 h): 128.7 x10_4/uL; RBC (24 h): 601 x10_4/ul; Ret (24 h): 6.6%; WBC (24 h): 91.3 x10_2/uL; KIDNEY_L (24 h): 1 g; KIDNEY_R (24 h): 1 g; KIDNEY_TOTAL (24 h): 2 g; LIVER (24 h): 10.8 g; A/G (24 h): 1.6; ALP (24 h): 1087.6 IU/L; ALT (24 h): 37.8 IU/L; AST (24 h): 75.8 IU/L; BUN (24 h): 15.2 mg/dL; CRE (24 h): 0.4 mg/dL; Ca (24 h): 10.8 mg/dL; Cl (24 h): 103.6 meq/L; DBIL (24 h): 0.062 mg/dL; GLC (24 h): 188.8 mg/dL; IP (24 h): 7.6 mg/dL; K (24 h): 3.9 meq/L; LDH (24 h): 214.6 IU/L; Na (24 h): 141.6 meq/L; PL (24 h): 140.4 mg/dL; RALB (24 h): 3.4 g/dL; TBIL (24 h): 0.1 mg/dL; TC (24 h): 70.8 mg/dL; TG (24 h): 100.2 mg/dL; TP (24 h): 5.6 g/dL; gamma-GTP (24 h): 1.2 IU/L
